According to patent US9049864B2, “Pyridazinone herbicidal compounds” (Syngenta Limited, priority 2012, dated 2015):

Assays:
Test in all cases: Post-emergence herbicidal glasshouse test, percentage damage to the plant
Assay type in all cases: in vivo
[1] = tested on: Alopecurus myosuroides (ALOMY)
Procedure: (§1) Seeds of a variety of test species are sown in standard soil in pots:—Solanum nigrum (SOLNI), Amaranthus retoflexus (AMARE), Setaria faberi (SETFA), Alopecurus myosuroides (ALOMY), Echinochloa crus-galli (ECHCG), Ipomoea hederacea (IPOHE). After 8 days cultivation (post-emergence) under controlled conditions in a glasshouse (at 24/16° C., day/night; 14 hours light; 65% humidity), the plants are sprayed with an aqueous spray solution derived from the formulation of the technical active ingredient in acetone/water (50:50) solution containing 0.5% Tween 20 (polyoxyethelyene sorbitan monolaurate, CAS RN 9005-64-5). Compounds are applied at 1000 g/ha. The test plants are then grown in a glasshouse under controlled conditions in a glasshouse (at 24/16° C., day/night; 14 hours light; 65% humidity) and watered twice daily. After 13 days, the test is evaluated for the percentage damage caused to the plant. The biological activities are shown in the following table on a five point scale (5=80-100%; 4=60-79%; 3=40-59%; 2=20-39%; 1=0-19%). A comparative experiment is conducted to compare the biological efficacy of a compound of the present invention with those of WO 2011/045271. The test is performed as outlined above using the following compounds. Three different application rates are employed (250 g/ha, 500 g/ha and 1000 g/ha).

[2] = tested on: Amaranthus retoflexus (AMARE)
Procedure: as §1

[3] = tested on: Echinochloa crus-galli (ECHCG)
Procedure: as §1

[4] = tested on: Ipomoea hederacea (IPOHE)
Procedure: as §1

Setaria faberi (SETFA) = tested on: Setaria faberi (SETFA)
Procedure: as §1

Solanum nigrum (SOLNI) = tested on: Solanum nigrum (SOLNI)
Procedure: as §1

[5] = post-emergence, 1000 g/ha, evaluated after 13 days
[6] = comparative experiment, rate 250 g/ha
[7] = comparative experiment, rate 500 g/ha
[8] = comparative experiment, rate 1000 g/ha

Row | SMILES | POST Application ALOMY, percentage damage (five point scale) [1, 5] | POST Application AMARE, percentage damage (five point scale) [2, 5] | POST Application ECHCG, percentage damage (five point scale) [3, 5] | POST Application IPOHE, percentage damage (five point scale) [4, 5] | POST Application SETFA, percentage damage (five point scale) (Setaria faberi (SETFA); [5]) | POST Application SOLNI, percentage damage (five point scale) (Solanum nigrum (SOLNI); [5]) | further results
1 | Cc1nn(C)c(=O)c(-n2c(Cl)c(Cl)c3ccccc32)c1OC(=O)C(C)C [Compound 3.003] | 1 (1=0-19%) | 5 (5=80-100%) | 4 (4=60-79%) | 5 (5=80-100%) | 1 (1=0-19%) | 5 (5=80-100%) | –
2 | CC(C)C1=NN(C)C(=O)C(n2c(Cl)c(Cl)c3ccccc32)C1=O (stereo not drawn) [Compound 2.013] | 1 (1=0-19%) | 3 (3=40-59%) | 1 (1=0-19%) | 2 (2=20-39%) | 1 (1=0-19%) | 4 (4=60-79%) | –
3 | COCC1=NN(C)C(=O)C(n2c(Cl)c(Cl)c3ccccc32)C1=O (stereo not drawn) [Compound 2.008] | 1 (1=0-19%) | 3 (3=40-59%) | 1 (1=0-19%) | 5 (5=80-100%) | 1 (1=0-19%) | 5 (5=80-100%) | –
4 | CN1N=CC(=O)C(n2ccc3cc(Cl)ccc32)C1=O (stereo not drawn) [Compound 1.017] | 1 (1=0-19%) | 3 (3=40-59%) | 1 (1=0-19%) | 4 (4=60-79%) | 1 (1=0-19%) | 5 (5=80-100%) | –
5 | Cc1nn(C)c(=O)c(-n2c(Cl)c(Cl)c3ccccc32)c1OC(=O)c1ccc([N+](=O)[O-])cc1 [Compound 3.009] | 1 (1=0-19%) | 5 (5=80-100%) | 1 (1=0-19%) | 5 (5=80-100%) | 1 (1=0-19%) | 5 (5=80-100%) | –
6 | CCCOC1=NN(C)C(=O)C(n2c(Cl)c(Cl)c3ccccc32)C1=O (stereo not drawn) [Compound 2.018] | 1 (1=0-19%) | 3 (3=40-59%) | 1 (1=0-19%) | 4 (4=60-79%) | 1 (1=0-19%) | 4 (4=60-79%) | –
7 | CC(C)OCC1=NN(C)C(=O)C(n2c(Cl)c(Cl)c3ccccc32)C1=O (stereo not drawn) [Compound 2.014] | 1 (1=0-19%) | 2 (2=20-39%) | 1 (1=0-19%) | 5 (5=80-100%) | 1 (1=0-19%) | 4 (4=60-79%) | –
8 | CN1N=C(C(F)F)C(=O)C(n2c(Cl)c(Cl)c3ccccc32)C1=O (stereo not drawn) [Compound 2.002] | 1 (1=0-19%) | 5 (5=80-100%) | 1 (1=0-19%) | 5 (5=80-100%) | 1 (1=0-19%) | 5 (5=80-100%) | –
9 | CN1N=CC(=O)C(n2cc(Cl)c3cc(Cl)ccc32)C1=O (stereo not drawn) [Compound 1.016] | 1 (1=0-19%) | 2 (2=20-39%) | 1 (1=0-19%) | 4 (4=60-79%) | 1 (1=0-19%) | 5 (5=80-100%) | –
10 | CC1=NN(C)C(=O)C(n2c(C)c(Cl)c3ccccc32)C1=O (stereo not drawn) [Compound 4.027] | 3 (3=40-59%) | 5 (5=80-100%) | 5 (5=80-100%) | 5 (5=80-100%) | 4 (4=60-79%) | 5 (5=80-100%) | –
11 | CN1N=CC(=O)C(n2nc(Cl)c3ccccc32)C1=O (stereo not drawn) [Compound 1.001, 4-(3-chloroindazol-1-yl)-2-methyl-pyridazine-3,5-dione] | 1 (1=0-19%) | 5 (5=80-100%) | 4 (4=60-79%) | 5 (5=80-100%) | 2 (2=20-39%) | 5 (5=80-100%) | POST Application ALOMY, percentage damage (five point scale) [1, 6]: 2 (2=20-39%); POST Application ALOMY, percentage damage (five point scale) [1, 7]: 2 (2=20-39%); POST Application ALOMY, percentage damage (five point scale) [1, 8]: 2 (2=20-39%); POST Application AMARE, percentage damage (five point scale) [2, 6]: 4 (4=60-79%); POST Application AMARE, percentage damage (five point scale) [2, 7]: 4 (4=60-79%); POST Application AMARE, percentage damage (five point scale) [2, 8]: 4 (4=60-79%); POST Application ECHCG, percentage damage (five point scale) [3, 6]: 2 (2=20-39%); POST Application ECHCG, percentage damage (five point scale) [3, 7]: 3 (3=40-59%); POST Application ECHCG, percentage damage (five point scale) [3, 8]: 3 (3=40-59%); POST Application IPOHE, percentage damage (five point scale) [4, 6]: 5 (5=80-100%); POST Application IPOHE, percentage damage (five point scale) [4, 7]: 5 (5=80-100%); POST Application IPOHE, percentage damage (five point scale) [4, 8]: 5 (5=80-100%); POST Application SETFA, percentage damage (five point scale) (Setaria faberi (SETFA); [6]): 1 (1=0-19%); POST Application SETFA, percentage damage (five point scale) (Setaria faberi (SETFA); [7]): 1 (1=0-19%); POST Application SETFA, percentage damage (five point scale) (Setaria faberi (SETFA); [8]): 3 (3=40-59%); POST Application SOLNI, percentage damage (five point scale) (Solanum nigrum (SOLNI); [6]): 5 (5=80-100%); POST Application SOLNI, percentage damage (five point scale) (Solanum nigrum (SOLNI); [7]): 5 (5=80-100%); POST Application SOLNI, percentage damage (five point scale) (Solanum nigrum (SOLNI); [8]): 5 (5=80-100%)
12 | CCSC1=NN(C)C(=O)C(n2c(Cl)c(Cl)c3ccccc32)C1=O (stereo not drawn) [Compound 2.017] | 1 (1=0-19%) | 4 (4=60-79%) | 2 (2=20-39%) | 1 (1=0-19%) | 1 (1=0-19%) | 3 (3=40-59%) | –
13 | CC1=NN(C)C(=O)C(n2c(Br)c(Br)c3ccccc32)C1=O (stereo not drawn) [Compound 1.024] | 1 (1=0-19%) | 5 (5=80-100%) | 2 (2=20-39%) | 5 (5=80-100%) | 2 (2=20-39%) | 5 (5=80-100%) | –
14 | CC[S+]([O-])C1=NN(C)C(=O)C(n2c(Cl)c(Cl)c3ccccc32)C1=O (stereo not drawn) [Compound 2.006] | 1 (1=0-19%) | 1 (1=0-19%) | 1 (1=0-19%) | 4 (4=60-79%) | 1 (1=0-19%) | 4 (4=60-79%) | –
